From patent US9260416B2, “Heterocyclic autotaxin inhibitors and uses thereof” (AMIRA PHARMACEUTICALS, INC., priority 2011, dated 2016) come the findings set out here.

In this experiment the target is T1, autotaxin (Homo sapiens, UniProt Q13822).
T1 construct: tissue Biocell Laboratories Inc 1121-00; host or cells: human serum (delipidated, dialyzed)
As to the kind of experiment: Human Serum Autotaxin Assay (choline release from LPC, TOOS detection). It counts as biochemical. Particulars: dialyzed human serum; substrate LPC 14:0, 300 μM; 4 hours at 37° C.; choline release read at 555 nm. The procedure: Human Serum Autotaxin Assay
Inhibition of autotaxin activity is assayed in human serum by measuring the amount of choline released from the substrate, lysophosphatidylcholine (LPC). […] To assay for autotaxin inhibition, 20 μl of the dialyzed human serum is incubated with 2 μl test compound in DMSO and 73 μl lyso-PLD buffer (100 mM Tris pH 9, 500 mM NaCl, 5 mM MgCl2, 30 μM CoCl2, 0.05% Triton X-100) for 15 minutes at 37° C. […] 100 μl of a color mix which contains 4.5 mM 4-aminoantipyrine, 2.7 mM N-ethyl-N-(2-hydroxy-3-sulfopropyl)-m-toluidine, 21 units/ml Horseradish peroxidase and 3 units/ml choline oxidase in 50 mM Tris, pH 8, 4.5 mM MgCl2 is added and the incubation continued for 15 minutes at room temperature before reading the absorbance at 555 nm. The concentration of released choline in the sample is determined from a choline standard curve and is equal to the concentration of LPA produced.
`CCCn1cc(-n2c(C)c(Sc3cccc(CC(=O)O)n3)c3ccc(Cl)c(F)c32)cn1` [Compound 1-18, {6-[6-Chloro-7-fluoro-2-methyl-1-(1-propyl-1H-pyrazol-4-yl)-1H-indol-3-ylsulfanyl]-pyridin-2-yl}-acetic acid] showed an IC50 of under 300 nM. Then `Cc1c(Sc2cncc(C(=O)O)c2)c2ccc(Cl)cc2n1-c1cnn(C(C)C)c1` [Compound 1-5, 5-[6-Chloro-1-(1-isopropyl-1H-pyrazol-4-yl)-2-methyl-1H-indol-3-ylsulfanyl]-nicotinic acid], with under 300 nM; and `CCn1cc(-n2c(C)c(Sc3cnn(CC(=O)O)c3)c3ccc(Cl)c(F)c32)cn1` [Compound 1-16, {4-[6-Chloro-1-(1-ethyl-1H-pyrazol-4-yl)-7-fluoro-2-methyl-1H-indol-3-ylsulfanyl]-pyrazol-1-yl}-acetic acid], with under 300 nM. In the case of `Cc1c(Sc2cncc(C(=O)O)c2)c2ccc(Cl)cc2n1-c1cnn(C)c1` [Compound 1-3, 5-[6-Chloro-2-methyl-1-(1-methyl-1H-pyrazol-4-yl)-1H-indol-3-ylsulfanyl]-nicotinic acid] it was under 300 nM; in that of `Cc1[nH]c2cc(Cl)ccc2c1Sc1cncc(C(=O)O)c1` [Compound 1-1, 5-(6-Chloro-2-methyl-1H-indol-3-ylsulfanyl)-nicotinic acid], over 1000 nM; in that of `CCn1cc(-n2c(C)c(Sc3cc(C(=O)O)ccn3)c3ccc(Cl)cc32)cn1` [Compound 1-7, 2-[6-Chloro-1-(1-ethyl-1H-pyrazol-4-yl)-2-methyl-1H-indol-3-ylsulfanyl]-isonicotinic acid], under 300 nM. In the case of `CCn1cc(-n2c(C)c(Sc3cccc(C(=O)O)n3)c3ccc(Cl)cc32)cn1` [Compound 1-9, 6-[6-Chloro-1-(1-ethyl-1H-pyrazol-4-yl)-2-methyl-1H-indol-3-ylsulfanyl]-pyridine-2-carboxylic acid] it was under 300 nM; in that of `Cc1c(Sc2cc(C(=O)O)ccn2)c2ccc(Cl)cc2n1-c1cnn(C)c1` [Compound 1-6, 2-[6-Chloro-2-methyl-1-(1-methyl-1H-pyrazol-4-yl)-1H-indol-3-ylsulfanyl]-isonicotinic acid], over 1000 nM; in that of `CCCn1cc(-n2c(C)c(Sc3cccc(C(=O)O)n3)c3ccc(Cl)cc32)cn1` [Compound 1-11, 6-[6-Chloro-2-methyl-1-(1-propyl-1H-pyrazol-4-yl)-1H-indol-3-ylsulfanyl]-pyridine-2-carboxylic acid], under 300 nM. Turning to `CCCn1cc(-n2c(C)c(Sc3cccc(C(=O)O)n3)c3ccc(Cl)c(F)c32)cn1` [Compound 1-15, 6-[6-Chloro-7-fluoro-2-methyl-1-(1-propyl-1H-pyrazol-4-yl)-1H-indol-3-ylsulfanyl]-pyridine-2-carboxylic acid], the IC50 was under 300 nM. In the case of `CCn1cc(-n2c(C)c(Sc3cccc(CC(=O)O)n3)c3ccc(Cl)c(F)c32)cn1` [Compound 1-17, {6-[6-Chloro-1-(1-ethyl-1H-pyrazol-4-yl)-7-fluoro-2-methyl-1H-indol-3-ylsulfanyl]-pyridin-2-yl}-acetic acid] it was under 300 nM; in that of `CCn1cc(-n2c(C)c(Sc3cccc(C(=O)O)n3)c3ccc(Cl)c(F)c32)cn1` [Compound 1-12, 6-[6-Chloro-1-(1-ethyl-1H-pyrazol-4-yl)-7-fluoro-2-methyl-1H-indol-3-ylsulfanyl]-pyridine-2-carboxylic acid], under 300 nM.

For the compound `Cc1c(Sc2cncc(C(=O)O)c2)c2ccc(Cl)cc2n1Cc1ccccc1` [Compound 1-2, 5-(1-Benzyl-6-chloro-2-methyl-1H-indol-3-ylsulfanyl)-nicotinic acid], the IC50 was over 1000 nM. In the case of `Cc1c(Sc2cccc(C(=O)O)n2)c2ccc(Cl)cc2n1-c1cnn(C(C)C)c1` [Compound 1-14, 6-[6-Chloro-1-(1-isopropyl-1H-pyrazol-4-yl)-2-methyl-1H-indol-3-ylsulfanyl]-pyridine-2-carboxylic acid] it was under 300 nM. `CCn1cc(-n2c(C)c(Sc3cncc(C(=O)O)c3)c3ccc(Cl)cc32)cn1` [Compound 1-4, 5-[6-Chloro-1-(1-ethyl-1H-pyrazol-4-yl)-2-methyl-1H-indol-3-ylsulfanyl]-nicotinic acid] registered an IC50 of under 300 nM. Then `Cc1c(Sc2cccc(C(=O)O)n2)c2ccc(Cl)cc2n1-c1cnn(C)c1` [Compound 1-10, 6-[6-Chloro-2-methyl-1-(1-methyl-1H-pyrazol-4-yl)-1H-indol-3-ylsulfanyl]-pyridine-2-carboxylic acid], with under 300 nM; and `Cc1c(Sc2cc(C(=O)O)ccn2)c2ccc(Cl)cc2n1-c1cnn(C(C)C)c1` [Compound 1-8, 2-[6-Chloro-1-(1-isopropyl-1H-pyrazol-4-yl)-2-methyl-1H-indol-3-ylsulfanyl]-isonicotinic acid], with 300 to 1000 nM; and `Cc1c(Sc2cccc(C(=O)O)n2)c2ccc(Cl)c(F)c2n1-c1cnn(C(C)C)c1` [Compound 1-13, 6-[6-Chloro-7-fluoro-1-(1-isopropyl-1H-pyrazol-4-yl)-2-methyl-1H-indol-3-ylsulfanyl]-pyridine-2-carboxylic acid], with under 300 nM.

What is called IC50 is the concentration that gives 50% inhibition.
